Test results reported in patent US20120022056A1, “FUSED TRICYCLIC DERIVATIVES FOR THE TREATMENT OF PSYCHOTIC DISORDERS” (priority 2005, published 2012).
Structures can show the parent of a compound that is named as a salt.

target: T1, 5-HT1A receptor (Homo sapiens, UniProt P08908); experiment: GTPγS binding functional potency assay (primary screen), 5-HT1A; format: biochemical; conditions: assay a), membranes of HEK293 cells transfected with human 5-HT1A, read-out: fpKi at the 5-HT1A receptor
T1 construct: expressed in transfected cells; host or cells: HEK293 (membranes)
T1 sequence (P08908 1-422): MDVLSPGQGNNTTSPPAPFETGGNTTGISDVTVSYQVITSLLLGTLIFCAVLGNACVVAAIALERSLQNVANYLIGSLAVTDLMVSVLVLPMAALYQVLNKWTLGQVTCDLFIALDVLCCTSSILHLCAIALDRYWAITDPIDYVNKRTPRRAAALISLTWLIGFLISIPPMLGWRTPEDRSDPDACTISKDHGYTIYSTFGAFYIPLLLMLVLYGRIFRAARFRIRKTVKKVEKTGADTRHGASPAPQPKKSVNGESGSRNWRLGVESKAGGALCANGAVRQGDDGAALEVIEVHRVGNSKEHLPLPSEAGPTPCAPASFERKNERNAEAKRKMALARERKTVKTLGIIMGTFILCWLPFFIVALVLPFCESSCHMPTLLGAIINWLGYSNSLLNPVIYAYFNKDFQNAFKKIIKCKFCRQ
Protocol: a) Functional Potency—Primary Screen
The functional potency may be determined by the following GTPγS binding protocol. Cells used in the study are CHO Cells and Human Embryo Kidney (HEK293). Cells were transfected with DNA coding for human receptors as follows: HEK293—5-HT1A; CHO—5-HT1B; and CH—5-HT1D. Test compounds were initially dissolved in 100% dimethyl sulfoxide to a concentration of 10 mM. Serial dilution of the test compounds in 100% dimethyl sulphoxide was carried out using a Biomek FX in 384 well assay plates, so that the final top concentration of test compound is 3 μM in the assay. Add the test compound at 1.0% total assay volume (TAV) to a solid, white, 384 well assay plate (Costar). Add 50% TAV of precoupled (for 90 mins @ RT) membranes (5 ug/well), Wheatgerm Agglutinin Polystyrene Scintillation Proximity Assay beads (RPNQ0260 Amersham International) (0.25 mg/well) in 20 mM HEPES pH 7.4, 100 mM NaCl, 3 mM MgCl2 and 10 μM GDP. The third addition was a 20% TAV addition of either buffer, agonist format, or EC80 final assay concentration (FAC) of agonist, 5HT antagonist format, prepared in assay buffer. The assay was started by the addition of 29% TAV of GTPγS 0.38 nM FAC. After all additions assay plates were incubated at RT for 2-3 hours. Assay plates were counted on a Viewlux, 613/55 filter for 5 mins. Assay plates were read between 2-6 hours after the final addition.

| Ki | SMILES |
| --- | --- |
| < 10 nM | CNC(=O)c1ncn2c1CCc1c(CCN3CCC(c4cccc5nc(C)ccc45)CC3)cccc1-2 [Example 83, N-methyl-6-{2-[4-(2-methyl-5-quinolinyl)-1-piperidinyl]ethyl}-4,5-dihydroimidazo[1,5-a]quinoline-3-carboxamide dihydrochloride] |
| < 10 nM | CNC(=O)c1ncn2c1ccc1c(CCN3CCC(c4cccc5nc(C)ccc45)CC3)cccc12 [Example 89, N-methyl-6-{2-[4-(2-methyl-5-quinolinyl)-1-piperidinyl]ethyl}imidazo[1,5-a]quinoline-3-carboxamide dihydrochloride] |
| < 10 nM | Cc1ccc2c(C3CCN(CCc4cccc5c4ccc4c(C(N)=O)ncn45)CC3)cccc2n1 [Example 91, 6-{2-[4-(2-methyl-5-quinolinyl)-1-piperidinyl]ethyl}imidazo[1,5-a]quinoline-3-carboxamide dihydrochloride] |
| < 10 nM | Cc1ccc2c(N3CCN(CCc4cccc5c4ccc4nnnn45)[C@H](C)C3)cccc2n1 [Example 94, 6-{2-[(2R)-2-methyl-4-(2-methyl-5-quinolinyl)-1-piperazinyl]ethyl}tetrazolo[1,5-a]quinoline dihydrochloride] |
| < 10 nM | CCOC(=O)c1nnn2c1ccc1c(CCN3CCN(c4cccc5nc(C)ccc45)CC3)cccc12 [Example 97, ethyl 6-{2-[4-(2-methyl-5-quinolinyl)-1-piperazinyl]ethyl}[1,2,3]triazolo[1,5-a]quinoline-3-carboxylate dihydrochloride] |
| < 10 nM | Cc1ccc2c(N3CCN(CCc4cccc5c4ccc4c(-c6nc(C)no6)ncn45)[C@H](C)C3)cccc2n1 [Example 105, 6-{2-[(2R)-2-methyl-4-(2-methyl-5-quinolinyl)-1-piperazinyl]ethyl}-3-(3-methyl-1,2,4-oxadiazol-5-yl)imidazo[1,5-a]quinoline dihydrochloride] |
| < 10 nM | Cc1ccc2c(C3CCN(CCc4cccc5c4CCc4c(C(N)=O)ncn4-5)CC3)cccc2n1 [Example 122, 6-{2-[4-(2-methyl-5-quinolinyl)-1-piperidinyl]ethyl}-4,5-dihydroimidazo[1,5-a]quinoline-3-carboxamide dihydrochloride] |
| < 10 nM | CNC(=O)c1ncn2c1COc1c-2ccc(C)c1CCN1CCC(c2cccc3nc(C)ccc23)CC1 [Example 124, N,7-dimethyl-6-{2-[4-(2-methyl-5-quinolinyl)-1-piperidinyl]ethyl}-4H-imidazo[5,1-c][1,4]benzoxazine-3-carboxamide dihydrochloride] |
| < 10 nM | Cc1ccc2c(C3CCN(CCc4c(C)ccc5c4OCc4c(C(N)=O)ncn4-5)CC3)cccc2n1 [Example 125, 7-methyl-6-{2-[4-(2-methyl-5-quinolinyl)-1-piperidinyl]ethyl}-4H-imidazo[5,1-c][1,4]benzoxazine-3-carboxamide dihydrochloride] |
